Experimental data as given in patent US20220306630A1, “AGONISTS OF ROR GAMMAt” (BRISTOL-MYERS SQUIBB COMPANY, priority 2019, published 2022).
Like-named read-outs stand apart in the source and are kept apart here.

Biological target: T1, RORgT (Homo sapiens, UniProt P51449)
T1 construct: Gal4 (fusion partner); expressed in transfected cells; host or cells: engineered Jurkat cells (Jurkat pEx/Gal/hRORγ CLBD/HYG pG5luc/blast)
T1 sequence (P51449 267-516): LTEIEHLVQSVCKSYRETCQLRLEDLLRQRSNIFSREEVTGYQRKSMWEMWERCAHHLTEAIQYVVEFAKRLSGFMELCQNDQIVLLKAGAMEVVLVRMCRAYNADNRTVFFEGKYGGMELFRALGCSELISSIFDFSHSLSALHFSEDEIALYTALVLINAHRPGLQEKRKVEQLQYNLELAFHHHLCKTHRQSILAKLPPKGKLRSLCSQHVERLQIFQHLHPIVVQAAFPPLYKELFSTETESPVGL
Test: RORgT Gal4 Luciferase Reporter Gene Assay
Assay type: cell-based
Conditions: engineered Jurkat cells overexpressing RORgT (LBD or full length) with Gal4 Luc reporter, 18 hours at 37° C., 40 μM to 0.67 nM
How it was run: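 Cells exposed to compound 18 hours at 37° C, then lysed for luciferase luminescence. Inhibition of constitutive activity expressed as percent reduction of signal window relative to a control compound.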

| Structure (SMILES) | EC50 (read-out: RORg_GAL4 EC50) [nM] | EC50 (RORg_GAL4 EC50 (nM)) [nM] |
| --- | --- | --- |
| COc1ccc(Oc2c(Cl)ccc(C(=O)N3CCN(c4ccccc4)CC3)c2Cl)cc1C(C)C [Example 214] | 434 |  |
| COc1ccc(Oc2c(Cl)ccc(C(=O)NCC3CCOCC3)c2Cl)cc1C(C)C [Example 216] | 813 |  |
| COc1ccc(Oc2c(Cl)ccc(C(=O)NCCc3ncn[nH]3)c2Cl)cc1C(C)C [Example 218] | 328 |  |
| COc1ccc(Oc2c(Cl)ccc(C(=O)NCCc3ccc(S(N)(=O)=O)cc3)c2Cl)cc1C(C)C [Example 219] | 1500 |  |
| COc1ccc(Oc2c(Cl)ccc(C(=O)NCCNC(C)=O)c2Cl)cc1C(C)C [Example 221] | 560 |  |
| COc1ccc(Oc2c(Cl)ccc(CNC(=O)CC3CCN(S(C)(=O)=O)CC3)c2Cl)cc1C(C)C [Example 222] | 225 |  |
| CCS(=O)(=O)N1CCC(OCC(=O)NCc2ccc(Cl)c(Oc3ccc(OC)c(C(C)C)c3)c2Cl)CC1 [Example 223] | 1110 |  |
| COc1ccc(Oc2c(Cl)ccc(CNC(=O)CCC3CCN(S(C)(=O)=O)CC3)c2Cl)cc1C(C)C [Example 224] | 732 |  |
| COc1ccc(Oc2c(Cl)ccc(C(=O)NCC3CCCC(O)C3)c2Cl)cc1C(C)C (stereo not shown) [Example 225] | 920 |  |
| COc1ccc(Oc2c(Cl)ccc(C(=O)NCC3CCCC(O)C3)c2Cl)cc1C(C)C (stereo not shown) [Example 226] | 286 |  |
| COc1ccc(Oc2c(Cl)cc(NC(=O)CN3CC4(C3)CN(S(=O)(=O)C3CC3)C4)cc2Cl)cc1C(C)C [Example 229] | 891 |  |
| COc1ccc(Oc2c(Cl)ccc(C(=O)N3CCN(c4ccc(Cl)cc4)CC3)c2Cl)cc1C(C)C [Example 230] | 373 |  |
| COc1ccc(Oc2c(Cl)cc(NC(=O)Nc3cccnc3)cc2Cl)cc1C(C)C [Example 232] | 285 |  |
| COc1ccc(Oc2c(Cl)cc(NC(=O)OCC(C)(C)C#N)cc2Cl)cc1C(C)C [Example 233] | 319 |  |
| COc1ccc(Oc2c(Cl)cc(NC(=O)NCCS(N)(=O)=O)cc2Cl)cc1C(C)C [Example 234] | 635 |  |
| COc1ccc(Oc2c(Cl)cc(NC(=O)OCCn3ccnc3)cc2Cl)cc1C(C)C [Example 235] | 1270 |  |
| COc1ccc(Oc2c(Cl)cc(NC(=O)N3CCOCC3)cc2Cl)cc1C(C)C [Example 236] | 597 |  |
| COc1ccc(Oc2c(Cl)cc(NC(=O)Cc3ccc[n+]([O-])c3)cc2Cl)cc1C(C)C [Example 237] | 235 |  |
| COc1ccc(Oc2c(Cl)cc(NC(=O)Cc3ccnc(N)c3)cc2Cl)cc1C(C)C [Example 238] | 752 |  |

| Structure (SMILES) | EC50 (read-out: RORg_GAL4 EC50) [nM] | EC50 (RORg_GAL4 EC50 (nM)) [nM] |
| --- | --- | --- |
| COc1ccc(Oc2c(Cl)cc(NC(=O)Cc3cnc(S(C)(=O)=O)cn3)cc2Cl)cc1C(C)C [Example 243] | 1280 |  |
| COc1ccc(Oc2c(Cl)cc(NC(=O)CCn3cncn3)cc2Cl)cc1C(C)C [Example 245] | 1560 |  |
| COc1ccc(Oc2c(Cl)cc(NC(=O)Cc3cncn3C)cc2Cl)cc1C(C)C [Example 248] | 2250 |  |
| COc1ccc(Oc2c(Cl)cc(NC(=O)CCc3c(C)n[nH]c3C)cc2Cl)cc1C(C)C [Example 249] | 1640 |  |
| COc1ccc(Oc2c(Cl)cc(NC(=O)Cc3cnc[nH]3)cc2Cl)cc1C(C)C [Example 250] | 500 |  |
| COC(=O)NCC1CN(c2cc(Cl)c(Oc3ccc(OC)c(C(C)C)c3)c(Cl)c2)C(=O)O1 (stereo not shown) [Example 251] | 433 |  |
| COc1ccc(Oc2c(Cl)cc(NC(=O)CCn3ccc(S(C)(=O)=O)n3)cc2Cl)cc1C(C)C [Example 252] | 264 |  |
| COc1ccc(Oc2c(Cl)cc(N3CC(CNC(=O)CS(C)(=O)=O)OC3=O)cc2Cl)cc1C(C)C (stereo not shown) [Example 253] | 477 |  |
| COc1ccc(Oc2c(Cl)cc(N3CC(CNS(C)(=O)=O)OC3=O)cc2Cl)cc1C(C)C (stereo not shown) [Example 254] | 655 |  |
| CC(C)c1cc(Oc2c(Cl)cc(NC(=O)Cc3cccnc3)cc2Cl)ccc1OC(F)(F)F [Example 259] | 356 |  |
| CC(C)c1cc(F)cc(Oc2c(Cl)ccc(C(=O)N3CCN(S(C)(=O)=O)CC3)c2Cl)c1 [Example 263] |  | 105 |
| CC(C)c1cc(Oc2c(Cl)cc(NC(=O)Cc3cccnc3)cc2Cl)ccc1Cl [Example 265] | 204 |  |
| COc1ncc(Oc2c(Cl)cc(NC(=O)CN3CC(NS(C)(=O)=O)C3)cc2Cl)cc1C(C)C [Example 267] | 373 |  |
| CC(=O)NC[C@H]1CN(c2cc(Cl)c(Oc3cc(F)cc(C(C)C)c3)c(Cl)c2)C(=O)O1 [Example 272] | 260 |  |
| COc1ccc(Oc2c(Cl)cc(NC(=O)CN(C)C)cc2Cl)cc1C(C)C [Example 280] | 656 |  |
| COc1ccc(Oc2c(Cl)cc(NC(=O)CCC(N)=O)cc2Cl)cc1C(C)C [Example 281] | 375 |  |
| COc1ccc(Oc2c(Cl)cc(NC(=O)CCCS(N)(=O)=O)cc2Cl)cc1C(C)C [Example 282] | 264 |  |
| COc1ccc(Oc2c(Cl)cc(NC(=O)CCc3ccccc3)cc2Cl)cc1C(C)C [Example 284] | 40000 |  |
| COc1ccc(Oc2c(Cl)cc(NC(=O)CCCc3ccccc3)cc2Cl)cc1C(C)C [Example 285] | 284 |  |

Second part, led by results:

| EC50 (read-out: RORg_GAL4 EC50) [nM] | Structure (SMILES) | EC50 (RORg_GAL4 EC50 (nM)) [nM] |
| --- | --- | --- |
| 46 | COc1ccc(Oc2c(Cl)ccc(C(=O)N3CCOCC3)c2Cl)cc1C(C)C [Example 211] |  |
| 11 | CCS(=O)(=O)N1CCC(C(=O)NCc2ccc(Cl)c(Oc3ccc(OC)c(C(C)C)c3)c2Cl)CC1 [Example 212] |  |
| 19 | COc1ccc(Oc2c(Cl)ccc(CNC(=O)C3CCN(S(C)(=O)=O)CC3)c2Cl)cc1C(C)C [Example 213] |  |
| 37 | COc1ccc(Oc2c(Cl)ccc(C(=O)Nc3ccccc3CC#N)c2Cl)cc1C(C)C [Example 215] |  |
| 45 | COc1ccc(Oc2c(Cl)ccc(C(=O)NC(C)c3ccnn3C)c2Cl)cc1C(C)C (stereo not shown) [Example 217] |  |
| 109 | COc1ccc(Oc2c(Cl)ccc(C(=O)NCc3ccc(=O)[nH]c3)c2Cl)cc1C(C)C [Example 227, 2,4-dichloro-3-[4-methoxy-3-(propan-2-yl)phenoxy]-N-[(6-oxo-1,6-dihydropyridin-3-yl)methyl]benzamide] |  |
| 102 | COc1ccc(Oc2c(Cl)ccc(C(=O)NCc3ccc(C#N)cc3)c2Cl)cc1C(C)C [Example 228] |  |
| 26 | COc1ccc(Oc2c(Cl)cc(NC(=O)Cc3cccc(S(C)(=O)=O)c3)cc2Cl)cc1C(C)C [Example 231] |  |
| 170 | COc1ccc(Oc2c(Cl)cc(NC(=O)Cc3cncc(Cl)n3)cc2Cl)cc1C(C)C [Example 239] |  |
| 99 | COc1ccc(Oc2c(Cl)cc(NC(=O)Cc3cccnc3S(C)(=O)=O)cc2Cl)cc1C(C)C [Example 240] |  |
| 64 | COc1ccc(Oc2c(Cl)cc(NC(=O)Cc3ccnc(S(C)(=O)=O)c3)cc2Cl)cc1C(C)C [Example 241] |  |
| 40 | COc1ccc(Oc2c(Cl)cc(NC(=O)Cc3cncc(S(C)(=O)=O)c3)cc2Cl)cc1C(C)C [Example 242] |  |
| 37 | COc1ccc(Oc2c(Cl)cc(NC(=O)Cc3cccc(S(N)(=O)=O)c3)cc2Cl)cc1C(C)C [Example 244] |  |
| 123 | COc1ccc(Oc2c(Cl)cc(NC(=O)Cc3cnn(C)c3)cc2Cl)cc1C(C)C [Example 246] |  |
| 114 | COc1ccc(Oc2c(Cl)cc(NC(=O)C(O)c3cccnc3)cc2Cl)cc1C(C)C (stereo not shown) [Example 247] |  |
| 19 | COc1ccc(Oc2c(Cl)cc(NC(=O)CC3CCN(S(C)(=O)=O)CC3)cc2Cl)cc1C(C)(C)C [Example 255] |  |

| EC50 (read-out: RORg_GAL4 EC50) [nM] | Structure (SMILES) | EC50 (RORg_GAL4 EC50 (nM)) [nM] |
| --- | --- | --- |
| 153 | COc1ccc(Oc2c(Cl)cc(NC(=O)Cc3cnn(S(C)(=O)=O)c3)cc2Cl)cc1C(C)(C)C [Example 256] |  |
| 19 | CC(C)c1cc(F)cc(Oc2c(Cl)cc(NC(=O)CC3CCN(S(C)(=O)=O)CC3)cc2Cl)c1 [Example 258] |  |
| 102 | CC(C)c1cc(Oc2c(Cl)cc(NC(=O)CC3CCN(S(C)(=O)=O)CC3)cc2Cl)ccc1OC(F)(F)F [Example 260] |  |
| 14 | CC(C)c1cc(F)cc(Oc2c(Cl)ccc(C(=O)NCC3CCN(S(C)(=O)=O)CC3)c2Cl)c1 [Example 261] |  |
| 39 | CC(C)c1cc(F)cc(Oc2c(Cl)ccc(C(=O)N3CCC(S(C)(=O)=O)CC3)c2Cl)c1 [Example 264] |  |
| 11 | CC(C)c1cc(Oc2c(Cl)cc(NC(=O)CC3CCN(S(C)(=O)=O)CC3)cc2Cl)ccc1F [Example 266] |  |
| 40 | COc1ncc(Oc2c(Cl)cc(NC(=O)CN3CCC(S(C)(=O)=O)CC3)cc2Cl)cc1C(C)C [Example 268] |  |
| 185 | C=C(C)c1cc(Oc2c(Cl)cc(NC(=O)CC3CCN(S(C)(=O)=O)CC3)cc2Cl)ccc1Cl [Example 269] |  |
| 22 | CC(C)c1cc(F)cc(Oc2c(Cl)cc(NC(=O)CC3CCN(S(N)(=O)=O)CC3)cc2Cl)c1 [Example 270] |  |
| 78 | CS(=O)(=O)N1CCN(CC(=O)Nc2cc(Cl)c(Oc3ccc(F)c(C4CC4)c3)c(Cl)c2)CC1 [Example 271] |  |
| 1.1 | CC1(c2cc(F)cc(Oc3c(Cl)cc(NC(=O)Cc4cccc(S(C)(=O)=O)c4)cc3Cl)c2)CC1 [Example 273] |  |
| 3.9 | CC1(c2cc(F)cc(Oc3c(Cl)cc(NC(=O)Cc4ccc(S(C)(=O)=O)cc4)cc3Cl)c2)CC1 [Example 274] |  |
| 12 | CC1(c2cc(F)cc(Oc3c(Cl)cc(NC(=O)CC4CCN(C(=O)C(F)(F)F)CC4)cc3Cl)c2)CC1 [Example 275] |  |
| 5.1 | CC1(c2cc(F)cc(Oc3c(Cl)ccc(C(=O)NCc4ccc(S(C)(=O)=O)cc4)c3Cl)c2)CC1 [Example 276] |  |
| 5.6 | CC1(c2cc(F)cc(Oc3c(Cl)ccc(C(=O)N4CCC5(CC4)CN(S(C)(=O)=O)C5)c3Cl)c2)CC1 [Example 277] |  |
| 1.7 | CC1(c2cc(F)cc(Oc3c(Cl)ccc(C(=O)NCc4ccc(S(N)(=O)=O)cc4)c3Cl)c2)CC1 [Example 278] |  |
